Results published in PMC12311136 (Nature Communications, 2025).

What was measured:
Assay type in all cases: binding
[1] = target: T1, ALA1 Loop1 (151–329 aa) (Arabidopsis thaliana, UniProt P98204); assay: bio-layer interferometry, liposome-loaded APS sensor
T1 sequence (P98204 151-329): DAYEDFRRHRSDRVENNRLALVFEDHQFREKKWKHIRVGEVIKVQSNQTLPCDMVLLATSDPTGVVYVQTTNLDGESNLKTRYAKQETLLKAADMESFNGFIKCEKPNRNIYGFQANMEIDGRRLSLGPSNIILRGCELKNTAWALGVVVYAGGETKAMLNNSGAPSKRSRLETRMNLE

[2] = target: T2, ALA1 Loop2 (410–914 aa) (Arabidopsis thaliana, UniProt P98204); assay: as above
T2 sequence (P98204 410-914): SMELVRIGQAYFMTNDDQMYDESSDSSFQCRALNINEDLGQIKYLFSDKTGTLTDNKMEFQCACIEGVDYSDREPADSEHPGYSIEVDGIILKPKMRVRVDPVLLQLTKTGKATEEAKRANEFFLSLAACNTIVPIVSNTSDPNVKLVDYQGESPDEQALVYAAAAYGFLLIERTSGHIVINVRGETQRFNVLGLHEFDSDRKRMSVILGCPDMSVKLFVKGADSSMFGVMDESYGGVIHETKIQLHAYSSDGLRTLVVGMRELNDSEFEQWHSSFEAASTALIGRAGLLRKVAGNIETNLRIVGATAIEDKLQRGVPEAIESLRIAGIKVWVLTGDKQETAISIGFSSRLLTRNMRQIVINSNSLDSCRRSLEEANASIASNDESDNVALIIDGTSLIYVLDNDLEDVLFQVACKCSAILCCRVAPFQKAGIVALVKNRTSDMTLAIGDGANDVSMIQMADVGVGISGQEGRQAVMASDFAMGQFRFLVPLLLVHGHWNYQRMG

[3] = target: T3, DRP1A (Arabidopsis thaliana, UniProt P42697); assay: bio-layer interferometry, POPC background subtracted; conditions: 3% lipid in POPC liposomes; HEPES pH 7.5, 100 mM NaCl
T3 sequence (P42697 1-610): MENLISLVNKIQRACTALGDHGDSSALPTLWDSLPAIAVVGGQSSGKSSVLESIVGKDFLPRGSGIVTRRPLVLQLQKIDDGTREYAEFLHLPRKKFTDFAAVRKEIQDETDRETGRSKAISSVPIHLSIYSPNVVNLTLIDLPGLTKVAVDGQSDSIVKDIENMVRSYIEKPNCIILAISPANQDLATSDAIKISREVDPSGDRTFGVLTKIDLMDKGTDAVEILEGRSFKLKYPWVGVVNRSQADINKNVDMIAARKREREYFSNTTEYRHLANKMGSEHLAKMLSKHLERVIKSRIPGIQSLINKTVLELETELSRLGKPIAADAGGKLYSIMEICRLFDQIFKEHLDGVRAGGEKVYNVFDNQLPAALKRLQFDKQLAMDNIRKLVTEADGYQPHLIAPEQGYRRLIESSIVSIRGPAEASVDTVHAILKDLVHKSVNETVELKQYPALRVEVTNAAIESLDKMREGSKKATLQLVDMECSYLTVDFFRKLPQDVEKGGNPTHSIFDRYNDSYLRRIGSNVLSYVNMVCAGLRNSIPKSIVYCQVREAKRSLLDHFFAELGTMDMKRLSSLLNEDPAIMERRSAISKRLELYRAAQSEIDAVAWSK

[4] = target: T2, ALA1 Loop2 (410–914 aa); assay: as above; conditions: 3% lipid in POPC liposomes; HEPES pH 7.5, 100 mM NaCl
[5] = target: T3, DRP1A; assay: bio-layer interferometry, liposome-loaded APS sensor

Structure (SMILES)	Kd [1] [nM]	Kd [2] [nM]	bio-layer interferometry, POPC background subtracted [3]	bio-layer interferometry, POPC background subtracted [4]	Kd [5] [nM]
CCCCCCCC/C=C\CCCCCCCC(=O)OC[C@H](COP(=O)(O)O[C@H]1[C@H](O)[C@@H](O)[C@H](OP(=O)(O)O)[C@@H](O)[C@H]1O)OC(=O)CCCCCCC/C=C\CCCCCCCC [PI4P]	6050	2210	followed by weaker binding to PI4P and PS liposomes	–	–
CCCCCCCC/C=C\CCCCCCCC(=O)OC[C@H](COP(=O)(O)OC[C@H](N)C(=O)O)OC(=O)CCCCCCC/C=C\CCCCCCCC [PS]	–	–	followed by weaker binding to PI4P and PS liposomes	highest near-steady-state binding was observed with PS, PI4P and PI5P liposomes	–
CCCCCCCC/C=C\CCCCCCCC(=O)OC[C@H](COP(=O)(O)O[C@@H]1[C@H](O)[C@H](O)[C@@H](OP(=O)(O)O)[C@H](OP(=O)(O)O)[C@H]1O)OC(=O)CCCCCCC/C=C\CCCCCCCC [PI(4,5)P2]	–	–	–	–	1230
CCCCCCCC/C=C\CCCCCCCC(=O)OC[C@H](COP(=O)(O)O[C@H]1[C@H](O)[C@@H](OP(=O)(O)O)[C@H](O)[C@@H](O)[C@H]1O)OC(=O)CCCCCCC/C=C\CCCCCCCC [PI5P]	–	–	–	highest near-steady-state binding was observed with PS, PI4P and PI5P liposomes	–
